Assay results taken from patent US8044052B2, “Biaryl ether urea compounds” (Pfizer Inc., priority 2006, dated 2011).

Experiments:
[1] = molecular target: T1, Human FAAH (Homo sapiens, UniProt O00519); assay: FAAH assay (glutamate dehydrogenase-coupled, oleamide substrate, absorbance at 340 nm); type: biochemical; conditions: irreversible inhibition, 1-4 nM FAAH, pH 7.4, 30° C., 90 min; for kinact/KI: read-out: hFAAH kinact/Ki
T1 construct: made in house
T1 sequence (O00519 1-579): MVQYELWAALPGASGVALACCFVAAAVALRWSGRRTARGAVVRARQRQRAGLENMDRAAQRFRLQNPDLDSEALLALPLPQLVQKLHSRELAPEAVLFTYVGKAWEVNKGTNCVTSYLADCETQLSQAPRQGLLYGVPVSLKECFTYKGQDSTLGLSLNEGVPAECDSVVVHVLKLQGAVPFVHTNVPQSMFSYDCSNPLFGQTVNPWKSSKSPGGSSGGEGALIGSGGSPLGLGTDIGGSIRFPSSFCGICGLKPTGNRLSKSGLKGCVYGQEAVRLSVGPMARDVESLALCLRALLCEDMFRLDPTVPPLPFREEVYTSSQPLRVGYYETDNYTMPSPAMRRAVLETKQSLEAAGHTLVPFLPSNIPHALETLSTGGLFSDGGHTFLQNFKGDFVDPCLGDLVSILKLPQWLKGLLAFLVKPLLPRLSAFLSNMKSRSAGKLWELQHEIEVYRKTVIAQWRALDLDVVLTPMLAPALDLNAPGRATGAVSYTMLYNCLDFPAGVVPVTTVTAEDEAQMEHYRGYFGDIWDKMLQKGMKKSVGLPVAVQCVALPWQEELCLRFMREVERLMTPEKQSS

| Compound | kinact/KI [1] [M⁻¹ s⁻¹] | also measured |
| --- | --- | --- |
| Cc1ccc(NC(=O)N2CCC(=C(F)c3cccc(Oc4ccc(C(F)(F)F)cn4)c3)CC2)cn1 [Example 70, 4-(fluoro(3-(5-(trifluoromethyl)pyridin-2-yloxy)phenyl)methylene)-N-(6-methylpyridin-3-yl)piperidine-1-carboxamide] | 4590 | melting point: 158 to 160 °C |
| O=C(Nc1cccnn1)N1CCC(=Cc2cccc(Oc3cnc4ccccc4n3)c2)CC1 [Example 122, N-pyridazin-3-yl-4-[3-(quinoxalin-2-yloxy)benzylidene]piperidine-1-carboxamide] | 909 | – |
| O=C(Nc1cccnn1)N1CCC(=Cc2cccc(Oc3cnccn3)c2)CC1 [Example 123, 4-[3-(pyrazin-2-yloxy)benzylidene]-N-pyridazin-3-ylpiperidine-1-carboxamide] | 203 | – |
| O=C(Nc1cccnn1)N1CCC(=Cc2cccc(Oc3nc4ccccc4s3)c2)CC1 [Example 124, 4-[3-(1,3-benzothiazol-2-yloxy)benzylidene]-N-pyridazin-3-ylpiperidine-1-carboxamide] | 7400 | – |
| O=C(Nc1cccnn1)N1CCC(=Cc2cccc(Oc3nc(-c4ccccc4)ns3)c2)CC1 [Example 125, 4-{3-[(3-phenyl-1,2,4-thiadiazol-5-yl)oxy]benzylidene}-N-pyridazin-3-ylpiperidine-1-carboxamide] | 140 | – |
| O=C(Nc1ccc(C(F)(F)F)nc1)N1CCC(=Cc2cccc(Oc3ccc(C(F)(F)F)cn3)c2)CC1 [Example 126, N-[6-(trifluoromethyl)pyridin-3-yl]-4-(3-{[5-(trifluoromethyl)pyridin-2-yl]oxy}benzylidene)piperidine-1-carboxamide] | 405 | – |
| COc1ccc(NC(=O)N2CCC(=Cc3cccc(Oc4ccc(C(F)(F)F)cn4)c3)CC2)c(OC)n1 [Example 127, N-(2,6-dimethoxypyridin-3-yl)-4-(3-{[5-(trifluoromethyl)pyridin-2-yl]oxy}benzylidene)piperidine-1-carboxamide] | 675 | – |
| O=C(Nc1ccc(Oc2cccnc2)nc1)N1CCC(=Cc2cccc(Oc3ccc(C(F)(F)F)cn3)c2)CC1 [Example 128, N-[6-(pyridin-3-yloxy)pyridin-3-yl]-4-(3-{[5-(trifluoromethyl)pyridin-2-yl]oxy}benzylidene)piperidine-1-carboxamide] | 1300 | – |
| COc1ncccc1NC(=O)N1CCC(=Cc2cccc(Oc3ccc(C(F)(F)F)cn3)c2)CC1 [Example 129, N-(2-methoxypyridin-3-yl)-4-(3-{[5-(trifluoromethyl)pyridin-2-yl]oxy}benzylidene)piperidine-1-carboxamide] | 1730 | – |
| COc1cncc(NC(=O)N2CCC(=Cc3cccc(Oc4ccc(C(F)(F)F)cn4)c3)CC2)c1 [Example 130, N-(5-methoxypyridin-3-yl)-4-(3-{[5-(trifluoromethyl)pyridin-2-yl]oxy}benzylidene)piperidine-1-carboxamide] | 944 | – |
| Cc1cc(NC(=O)N2CCC(=Cc3cccc(Oc4ccc(C(F)(F)F)cn4)c3)CC2)cnc1C [Example 131, N-(5,6-dimethylpyridin-3-yl)-4-(3-{[5-(trifluoromethyl)pyridin-2-yl]oxy}benzylidene)piperidine-1-carboxamide] | 1110 | – |
| O=C(Nc1ncc(Br)cc1CO)N1CCC(=Cc2cccc(Oc3ccc(C(F)(F)F)cn3)c2)CC1 [Example 132, N-[5-bromo-3-(hydroxymethyl)pyridin-2-yl]-4-(3-{[5-(trifluoromethyl)pyridin-2-yl]oxy}benzylidene)piperidine-1-carboxamide] | 105 | – |
| Cc1noc(C)c1NC(=O)N1CCC(=Cc2cccc(Oc3ccc(C(F)(F)F)cn3)c2)CC1 [Example 133, N-(3,5-dimethylisoxazol-4-yl)-4-(3-{[5-(trifluoromethyl)pyridin-2-yl]oxy}benzylidene)piperidine-1-carboxamide] | 36.8 | – |
| Cc1nn(C)c(C)c1NC(=O)N1CCC(=Cc2cccc(Oc3ccc(C(F)(F)F)cn3)c2)CC1 [Example 134, 4-(3-{[5-(trifluoromethyl)pyridin-2-yl]oxy}benzylidene)-N-(1,3,5-trimethyl-1H-pyrazol-4-yl)piperidine-1-carboxamide] | < 10 | – |
| Cc1ccnc(NC(=O)N2CCC(=Cc3cccc(Oc4ccc(C(F)(F)F)cn4)c3)CC2)c1 [Example 135, N-(4-methylpyridin-2-yl)-4-(3-{[5-(trifluoromethyl)pyridin-2-yl]oxy}benzylidene)piperidine-1-carboxamide] | 173 | – |
| Cn1cc(NC(=O)N2CCC(=Cc3cccc(Oc4ccc(C(F)(F)F)cn4)c3)CC2)cn1 [Example 137, N-(1-methyl-1H-pyrazol-4-yl)-4-(3-{[5-(trifluoromethyl)pyridin-2-yl]oxy}benzylidene)piperidine-1-carboxamide] | 1070 | – |
| O=C(Nc1cn[nH]c1)N1CCC(=Cc2cccc(Oc3ccc(C(F)(F)F)cn3)c2)CC1 [Example 138, N-1H-pyrazol-4-yl-4-(3-{[5-(trifluoromethyl)pyridin-2-yl]oxy}benzylidene)piperidine-1-carboxamide] | 4300 | – |
| Cc1cc(NC(=O)N2CCC(=Cc3cccc(Oc4ccc(C(F)(F)F)cn4)c3)CC2)n[nH]1 [Example 139, N-(5-methyl-1H-pyrazol-3-yl)-4-(3-{[5-(trifluoromethyl)pyridin-2-yl]oxy}benzylidene)piperidine-1-carboxamide] | 306 | – |
| COc1ccc(NC(=O)N2CCC(=Cc3cccc(Oc4ccc(C(F)(F)F)cn4)c3)CC2)c(C)n1 [Example 140, N-(6-methoxy-2-methylpyridin-3-yl)-4-(3-{[5-(trifluoromethyl)pyridin-2-yl]oxy}benzylidene)piperidine-1-carboxamide] | 837 | – |
| CCc1ccnc(NC(=O)N2CCC(=Cc3cccc(Oc4ccc(C(F)(F)F)cn4)c3)CC2)c1 [Example 141, N-(4-ethylpyridin-2-yl)-4-(3-{[5-(trifluoromethyl)pyridin-2-yl]oxy}benzylidene)piperidine-1-carboxamide] | 117 | – |
| O=C(Nc1ccc(O)nc1)N1CCC(=Cc2cccc(Oc3ccc(C(F)(F)F)cn3)c2)CC1 [Example 142, N-(6-hydroxypyridin-3-yl)-4-(3-{[5-(trifluoromethyl)pyridin-2-yl]oxy}benzylidene)piperidine-1-carboxamide] | 246 | – |
| O=C(Nc1cc(O)[nH]n1)N1CCC(=Cc2cccc(Oc3ccc(C(F)(F)F)cn3)c2)CC1 [Example 143, N-(5-hydroxy-1H-pyrazol-3-yl)-4-(3-{[5-(trifluoromethyl)pyridin-2-yl]oxy}benzylidene)piperidine-1-carboxamide] | 412 | – |
| N-(pyridazin-3-yl)-4-(3-{[phenyl-2-yl]oxy}benzylidene)piperidine-1-carboxamide [Example 32] | – | hFAAH kinact/Ki [1]: 973 M⁻¹ s⁻¹ |
| N-(pyridin-3-yl)-4-(3-[{phenyl-2-yl]oxy}benzylidene)piperidine-1-carboxamide [Example 31] | – | hFAAH kinact/Ki [1]: 931 M⁻¹ s⁻¹ |
| N-pyridin-4-yl-4-(3-{[5-(trifluoromethyl)pyridin-2-yl]oxy}benzylidene)piperidine-1-carboxamide trifluoroacetate [Example 76] | – | hFAAH kinact/Ki [1]: 2390 M⁻¹ s⁻¹ |
